Data from PubChem BioAssay AID1963826 (Molecular Pharmacology Branch, DTP, NCI, 2024).

Test system: 926638-142-R-J1-PDC complex spheroid viability
Assay: Anticancer human tumor 926638-142-R-J1-PDC patient-derived endometrial carcinoma cell line growth inhibition [POLQ]
Conditions: for IC50: curve of first compound; for viability, T/C: stronger effect = lower value
Procedure, shortened: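 PDC + HUVEC + MSC complex spheroids; POLQ inhibitors ± partner drugs; top conc. at/near clinical Cmax, else 10 microM (SN-38 1 microM), half-log dilutions; 37 degrees C, 5% CO2.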

[1] = second compound 0.0316 µM, first compound 0.0316 µM
[2] = second compound 0.0316 µM, first compound 0.1 µM
[3] = second compound 0.0316 µM, first compound 0.316 µM
[4] = second compound 0.0316 µM, first compound 1 µM
[5] = second compound 0.0316 µM, first compound 3.16 µM
[6] = second compound 0.0316 µM, first compound 10 µM
[7] = second compound 0.1 µM, first compound 0.0316 µM
[8] = second compound 0.1 µM, first compound 0.1 µM
[9] = second compound 0.1 µM, first compound 0.316 µM
[10] = second compound 0.1 µM, first compound 1 µM
[11] = second compound 0.1 µM, first compound 3.16 µM
[12] = second compound 0.1 µM, first compound 10 µM
[13] = second compound 0.316 µM, first compound 0.0316 µM
[14] = second compound 0.316 µM, first compound 0.1 µM
[15] = second compound 0.316 µM, first compound 0.316 µM
[16] = second compound 0.316 µM, first compound 1 µM
[17] = second compound 0.316 µM, first compound 3.16 µM
[18] = second compound 0.316 µM, first compound 10 µM
[19] = second compound 1 µM, first compound 0.0316 µM
[20] = second compound 1 µM, first compound 0.1 µM
[21] = second compound 1 µM, first compound 0.316 µM
[22] = second compound 1 µM, first compound 1 µM
[23] = second compound 1 µM, first compound 3.16 µM
[24] = second compound 1 µM, first compound 10 µM
[25] = second compound 3.16 µM, first compound 0.0316 µM
[26] = second compound 3.16 µM, first compound 0.1 µM
[27] = second compound 3.16 µM, first compound 0.316 µM
[28] = second compound 3.16 µM, first compound 1 µM
[29] = second compound 3.16 µM, first compound 3.16 µM
[30] = second compound 3.16 µM, first compound 10 µM
[31] = second compound 10 µM, first compound 0.0316 µM
[32] = second compound 10 µM, first compound 0.1 µM
[33] = second compound 10 µM, first compound 0.316 µM
[34] = second compound 10 µM, first compound 1 µM
[35] = second compound 10 µM, first compound 3.16 µM
[36] = second compound 10 µM, first compound 10 µM
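Note: spheroids exposed to drugs for one week before readout.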
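Throughout, for viability, T/C: percent viability relative to DMSO vehicle control wells set as 100%.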

## C#Cc1c(F)ccc2cc(O)cc(-c3ncc4c(N5CC6CCC(C5)N6)nc(OCC56CCCN5CC(F)C6)nc4c3F)c12 (stereo unspecified) + Nc1ccc(C#CCN(C(=O)Cc2ncc(C(F)(F)F)cc2C(F)(F)F)c2ccc(F)cc2)nn1
Second compound 0.0316 µM
  IC50: > 10 µM
Second compound 0.1 µM
  IC50: > 10 µM
Second compound 0.316 µM
  IC50: > 10 µM
Second compound 1 µM
  IC50: > 10 µM
Second compound 3.16 µM
  IC50: > 10 µM
Second compound 10 µM
  IC50: > 10 µM
[1]
  viability, T/C: 97.8%
[2]
  viability, T/C: 95%
[3]
  viability, T/C: 83.7%
[4]
  viability, T/C: 80.1%
[5]
  viability, T/C: 71.8%
[6]
  viability, T/C: 64.5%
[7]
  viability, T/C: 125%
[8]
  viability, T/C: 83.2%
[9]
  viability, T/C: 79.1%
[10]
  viability, T/C: 82.2%
[11]
  viability, T/C: 75.9%
[12]
  viability, T/C: 71.2%
[13]
  viability, T/C: 84.4%
[14]
  viability, T/C: 101%
[15]
  viability, T/C: 84.2%
[16]
  viability, T/C: 76.7%
[17]
  viability, T/C: 79.8%
[18]
  viability, T/C: 59.3%
[19]
  viability, T/C: 105%
[20]
  viability, T/C: 101%
[21]
  viability, T/C: 89.4%
[22]
  viability, T/C: 85.6%
[23]
  viability, T/C: 81.2%
[24]
  viability, T/C: 59.2%
[25]
  viability, T/C: 88%
[26]
  viability, T/C: 93.4%
[27]
  viability, T/C: 74.2%
[28]
  viability, T/C: 87%
[29]
  viability, T/C: 80.3%
[30]
  viability, T/C: 66.3%
[31]
  viability, T/C: 99.1%
[32]
  viability, T/C: 78.2%
[33]
  viability, T/C: 80%
[34]
  viability, T/C: 70.7%
[35]
  viability, T/C: 79.3%
[36]
  viability, T/C: 53.1%

## CC(C)n1c(=O)n(C)c2cnc3cc(F)c(-c4ccc(OCCCN5CCCCC5)nc4)cc3c21 + Nc1ccc(C#CCN(C(=O)Cc2ncc(C(F)(F)F)cc2C(F)(F)F)c2ccc(F)cc2)nn1
Second compound 0.0316 µM
  IC50: > 10 µM
Second compound 0.1 µM
  IC50: > 10 µM
Second compound 0.316 µM
  IC50: > 10 µM
Second compound 1 µM
  IC50: > 10 µM
Second compound 3.16 µM
  IC50: > 10 µM
Second compound 10 µM
  IC50: > 10 µM
[1]
  viability, T/C: 105%
[2]
  viability, T/C: 98%
[3]
  viability, T/C: 106%
[4]
  viability, T/C: 107%
[5]
  viability, T/C: 95%
[6]
  viability, T/C: 73.6%
[7]
  viability, T/C: 120%
[8]
  viability, T/C: 103%
[9]
  viability, T/C: 95.6%
[10]
  viability, T/C: 106%
[11]
  viability, T/C: 90.1%
[12]
  viability, T/C: 74.6%
[13]
  viability, T/C: 96.3%
[14]
  viability, T/C: 99.2%
[15]
  viability, T/C: 96%
[16]
  viability, T/C: 93.9%
[17]
  viability, T/C: 84.5%
[18]
  viability, T/C: 65.4%
[19]
  viability, T/C: 104%
[20]
  viability, T/C: 106%
[21]
  viability, T/C: 84.7%
[22]
  viability, T/C: 90%
[23]
  viability, T/C: 83%
[24]
  viability, T/C: 73.7%
[25]
  viability, T/C: 93.5%
[26]
  viability, T/C: 84.7%
[27]
  viability, T/C: 93%
[28]
  viability, T/C: 93.8%
[29]
  viability, T/C: 83.4%
[30]
  viability, T/C: 71.2%
[31]
  viability, T/C: 73.6%
[32]
  viability, T/C: 85.6%
[33]
  viability, T/C: 97.2%
[34]
  viability, T/C: 96.1%
[35]
  viability, T/C: 86.3%
[36]
  viability, T/C: 67.1%

## CC1COCCN1c1cc(C2(O)CC3CCC(C2)O3)c2cnn(-c3ccn[nH]3)c2n1 (stereo unspecified) + Nc1ccc(C#CCN(C(=O)Cc2ncc(C(F)(F)F)cc2C(F)(F)F)c2ccc(F)cc2)nn1
Second compound 0.0316 µM
  IC50: 0.197 µM
Second compound 0.1 µM
  IC50: 0.2 µM
Second compound 0.316 µM
  IC50: 0.191 µM
Second compound 1 µM
  IC50: 0.199 µM
Second compound 3.16 µM
  IC50: 0.198 µM
Second compound 10 µM
  IC50: 0.186 µM
[1]
  viability, T/C: 96.6%
[2]
  viability, T/C: 66.5%
[3]
  viability, T/C: 40.1%
[4]
  viability, T/C: 14.8%
[5]
  viability, T/C: 8.94%
[6]
  viability, T/C: 4.04%
[7]
  viability, T/C: 105%
[8]
  viability, T/C: 69.9%
[9]
  viability, T/C: 36.8%
[10]
  viability, T/C: 16.9%
[11]
  viability, T/C: 10.6%
[12]
  viability, T/C: 4.15%
[13]
  viability, T/C: 102%
[14]
  viability, T/C: 68.9%
[15]
  viability, T/C: 33.4%
[16]
  viability, T/C: 19.8%
[17]
  viability, T/C: 9.43%
[18]
  viability, T/C: 3.41%
[19]
  viability, T/C: 88.3%
[20]
  viability, T/C: 71%
[21]
  viability, T/C: 35.8%
[22]
  viability, T/C: 14%
[23]
  viability, T/C: 9.22%
[24]
  viability, T/C: 3.83%
[25]
  viability, T/C: 82.5%
[26]
  viability, T/C: 69%
[27]
  viability, T/C: 36.6%
[28]
  viability, T/C: 15.3%
[29]
  viability, T/C: 8.76%
[30]
  viability, T/C: 3.76%
[31]
  viability, T/C: 73.6%
[32]
  viability, T/C: 75.1%
[33]
  viability, T/C: 29.3%
[34]
  viability, T/C: 15.8%
[35]
  viability, T/C: 10.8%
[36]
  viability, T/C: 3.69%
